Experimental data taken from patent publication US20230183219A1, “CONDENSED SUBSTITUTED HYDROPYRROLES AS ANTAGONISTS OF THE MUSCARINIC ACETYLCHOLINE RECEPTOR M4” (Vanderbilt University, priority 2020, published 2023).

Target: T1, Human M4 (Homo sapiens, UniProt P08173)
T1 construct: Human or rat M4 cDNA, along with the chimeric G protein Gqi5, were transfected into Chinese hamster ovary (CHO-K1) cells; expressed in transfected cells; host or cells: CHO-K1 (Chinese hamster ovary, ATCC), stably co-expressing Gqi5
T1 sequence (P08173 1-479): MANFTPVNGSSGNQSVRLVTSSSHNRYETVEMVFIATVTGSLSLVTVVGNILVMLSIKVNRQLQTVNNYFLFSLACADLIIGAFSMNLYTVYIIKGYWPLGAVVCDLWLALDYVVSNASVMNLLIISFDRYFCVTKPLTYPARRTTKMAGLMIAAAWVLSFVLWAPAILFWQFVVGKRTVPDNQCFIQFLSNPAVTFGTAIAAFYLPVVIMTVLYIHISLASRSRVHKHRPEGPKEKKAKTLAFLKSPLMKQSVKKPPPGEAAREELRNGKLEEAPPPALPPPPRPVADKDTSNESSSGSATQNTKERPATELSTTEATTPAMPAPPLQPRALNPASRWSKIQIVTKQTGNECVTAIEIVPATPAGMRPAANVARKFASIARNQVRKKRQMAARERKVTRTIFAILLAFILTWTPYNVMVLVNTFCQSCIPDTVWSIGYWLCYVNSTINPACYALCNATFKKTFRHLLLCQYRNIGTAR
Test: mAChR M4 cell-based functional assay (calcium flux, decrease of EC80 acetylcholine response)
Details: for remaining activity at 30 µM / Human M4 Emin: % ACh maximum at 30 μM; for remaining activity at 30 µM: read-out: Human M4 Emin; for IC50: M4/Gqi5/CHO-K1 cells, decrease of response to EC80 acetylcholine
Experimental: Human or rat M4 cDNA, along with the chimeric G protein Gqi5, were transfected into Chinese hamster ovary (CHO-K1) cells purchased from the American Type Culture Collection using Lipofectamine2000. M4/Gqi5/CHO cells were grown in Ham's F-12 medium containing 10% heat-inactivated fetal bovine serum (FBS), 20 mM HEPES, 500 μg/mL G418 sulfate, and 200 μg/mL Hygromycin B.
For high throughput measurement of agonist-evoked increases in intracellular calcium, CHO-K1 cells stably expressing muscarinic receptors were plated in growth medium lacking G418 and hygromycin at 15,000 cells/20 μL/well in Greiner 384-well black-walled, tissue culture (TC)-treated, clear-bottom plates (VWR). Cells were incubated overnight at 37° C. and 5% CO2. The next day, cells were washed using an ELX 405 (BioTek) with assay buffer; the final volume was then aspirated to 20 μL. Next, 20 μL of a 2.3 μM stock of Fluo-4/acetoxymethyl ester (Invitrogen, Carlsbad, Calif.), prepared as a 2.3 mM stock in DMSO and mixed in a 1:1 ratio with 10% (w/v) Pluronic F-127 and diluted in assay buffer, was added to the wells and the cell plates were incubated for 50 min at 37° C. and 5% CO2. Dye was removed by washing with the ELX 405 and the final volume was aspirated to 20 μL. Compound master plates were formatted in a 10 point concentration-response curve (CRC) format (1:3 dilutions) in 100% DMSO with a starting concentration of 10 or 1 mM using a BRAVO liquid handler (Agilent). Test compound CRCs were then transferred to daughter plates (240 nL) using the Echo acoustic plate reformatter (Labcyte, Sunnyvale, Calif.) and then diluted into assay buffer (40 μL) to a 2×stock using a Thermo Fisher Combi (Thermo Fisher Scientific, Waltham, Mass.).
Calcium flux was measured using the Functional Drug Screening System (FDSS) 6000 or 7000 (Hamamatsu Corporation, Tokyo, Japan) as an increase in the fluorescent static ratio. Compounds were applied to cells (20 μL, 2×) using the automated system of the FDSS at 2 seconds into the protocol and the data were collected at 1 Hz. At 143 s, 10 μL of an EC20 concentration of the muscarinic receptor agonist acetylcholine was added (5×), followed by the addition of 12 μL of an EC80 concentration of acetylcholine at the 268 s time point (5×). Agonist activity was analyzed as a concentration-dependent increase in calcium mobilization upon compound addition. Positive allosteric modulator activity was analyzed as a concentration-dependent increase in the EC20 acetylcholine response. Antagonist activity was analyzed as a concentration-dependent decrease in the EC80 acetylcholine response; for the purposes of the tables herein, an IC50 (inhibitory concentration 50) was calculated as a concentration-dependent decrease of the response elicited by an EC80 concentration of acetylcholine. Concentration-response curves were generated using a four-parameter logistical equation in XLFit curve fitting software (IDBS, Bridgewater, N.J.) for Excel (Microsoft, Redmond, Wash.) or Prism (GraphPad Software, Inc., San Diego, Calif.) or the Dotmatics software platform (Dotmatics, Bishop's Stortford, UK).
Compounds were synthesized as described above. Activity (IC50 and Emin) was determined in the mAChR M4 cell-based functional assay as described above and the data are shown in Table 2.

Row | remaining activity at 30 µM [%] | IC50 [nM] | Structure (SMILES) | Human M4 Emin [%]
1 | 3 | 30.5 | Cc1ccc(F)cc1-c1cc(C#N)c(N[C@H]2C[C@@H]3CN(C[C@@H]4COCCO4)C[C@@H]3C2)nn1 [Example 150, 3-(((3aR,5s,6aS)-2-(((R)-1,4-dioxan-2-yl)methyl)octahydro-cyclopenta[c]pyrrol-5-yl)amino)-6-(5-fluoro-2-methylphenyl)pyridazine-4-carbonitrile] | –
2 | 3 | 54 | COc1ccccc1-c1cc(C(F)(F)F)c(N[C@H]2C[C@@H]3CN(CC4CCOCC4)C[C@@H]3C2)nn1 [Example 64, (3aR,5s,6aS)-N-(6-(2-methoxyphenyl)-4-(trifluoromethyl)pyridazin-3-yl)-2-((tetrahydro-2H-pyran-4-yl)methyl)octahydro-cyclopenta[c]pyrrol-5-amine] | –
3 | 3 | 161 | FC(F)(F)c1cc(-c2cccnc2)nnc1N[C@H]1C[C@@H]2CN(CC3CCOCC3)C[C@@H]2C1 [Example 68, (3aR,5s,6aS)-N-(6-(pyridin-3-yl)-4-(trifluoro-methyl)pyridazin-3-yl)-2-((tetrahydro-2H-pyran-4-yl)methyl)octahydro-cyclopenta[c]pyrrol-5-amine] | –
4 | 2 | 60.3 | [2H]C([2H])([2H])N(c1cc(C(F)(F)F)c(-c2cc(F)ccc2C)nn1)[C@H]1C[C@@H]2CN(CC3CCOCC3)C[C@@H]2C1 [Example 131, (3aR,5s,6aS)-N-(6-(5-fluoro-2-methylphenyl)-5-(trifluoromethyl)pyridazin-3-yl)-N-(methyl-d3)-2-((tetrahydro-2H-pyran-4-yl)methyl)octahydro-cyclopenta[c]pyrrol-5-amine] | –
5 | 4 | 342 | [2H]C([2H])(C1CCOCC1)N1C[C@H]2C[C@H](Nc3nnc(-c4cc(F)c(F)cc4F)cc3C(F)(F)F)C[C@H]2C1 [Example 125, (3aR,5s,6aS)-2-((tetrahydro-2H-pyran-4-yl)methyl-d2)-N-(4-(trifluoromethyl)-6-(2,4,5-trifluorophenyl)pyridazin-3-yl)octahydro-cyclopenta[c]pyrrol-5-amine] | –
6 | 3 | 201 | CCOc1ccc(F)cc1-c1cc(C(F)(F)F)c(N[C@H]2C[C@@H]3CN(CC4CCOCC4)C[C@@H]3C2)nn1 [Example 73, (3aR,5s,6aS)-N-(6-(2-ethoxy-5-fluorophenyl)-4-(trifluoromethyl)pyridazin-3-yl)-2-((tetrahydro-2H-pyran-4-yl)methyl)octahydro-cyclopenta[c]pyrrol-5-amine] | –
7 | 3 | 242 | Cc1cc(-c2cc(C(F)(F)F)c(N[C@H]3C[C@@H]4CN(CC5CCOCC5)C[C@@H]4C3)nn2)c(C)cc1F [Example 51, (3aR,5s,6aS)-N-(6-(4-fluoro-2,5-dimethylphenyl)-4-(trifluoromethyl)pyridazin-3-yl)-2-((tetrahydro-2H-pyran-4-yl)methyl)octahydro-cyclopenta[c]pyrrol-5-amine] | –
8 | 2 | 8.3 | FC1(F)CCN(c2cc(C(F)(F)F)c(N[C@H]3C[C@@H]4CN(CC5CCOCC5)C[C@@H]4C3)nn2)C1 [Example 141, (3aR,5s,6aS)-N-(6-(3,3-difluoropyrrolidin-1-yl)-4-(trifluoromethyl)pyridazin-3-yl)-2-((tetrahydro-2H-pyran-4-yl)methyl)octahydro-cyclopenta[c]pyrrol-5-amine] | –
9 | 5 | 2 | Cn1cc2cc(-c3cc(C#N)c(N[C@H]4C[C@@H]5CN(C[C@H]6CC7CCC6O7)C[C@@H]5C4)nn3)ccc2n1 (stereo partly drawn) [Example 161, 3-(((3aR,5s,6aS)-2-(((2R)-7-oxabicyclo[2.2.1]heptan-2-yl)methyl)octahydro-cyclopenta[c]pyrrol-5-yl)amino)-6-(2-methyl-2H-indazol-5-yl)pyridazine-4-carbonitrile] | –
10 | – | 76.1 | Cn1cc2cc(-c3cc(C(F)(F)F)c(N[C@H]4C[C@@H]5CN(CC6CCCOC6)C[C@@H]5C4)nn3)ccc2n1 (single isomer, unassigned) [Example 37] | 5
11 | 4 | 184 | Cc1nn(C)c(C)c1-c1cc(C(F)(F)F)c(N[C@H]2C[C@@H]3CN(CC4CCOCC4)C[C@@H]3C2)nn1 [Example 40, (3aR,5s,6aS)-2-((tetrahydro-2H-pyran-4-yl)methyl)-N-(4-(trifluoromethyl)-6-(1,3,5-trimethyl-1H-pyrazol-4-yl)pyridazin-3-yl)octahydro-cyclopenta[c]pyrrol-5-amine] | –
12 | 6 | 162 | Cn1cc2cc(-c3cc(C(F)(F)F)c(N[C@H]4C[C@@H]5CN(C[C@@H]6CCOC6)C[C@@H]5C4)nn3)ccc2n1 [Example 32, (3aR,5s,6aS)-N-(6-(2-methyl-2H-indazol-5-yl)-4-(trifluoro-methyl)pyridazin-3-yl)-2-(((S)-tetrahydrofuran-3-yl)methyl)octahydro-cyclopenta[c]pyrrol-5-amine] | –
13 | 2 | 467 | Fc1cccc(-c2cc(C(F)(F)F)c(N[C@H]3C[C@@H]4CN(Cc5ccccn5)C[C@@H]4C3)nn2)c1 [Example 105, (3aR,5s,6aS)-N-(6-(3-fluorophenyl)-4-(trifluoro-methyl)pyridazin-3-yl)-2-(pyridin-2-ylmethyl)octahydro-cyclopenta[c]pyrrol-5-amine] | –
14 | 4 | 89.6 | Cn1ccc2cc(-c3cc(C(F)(F)F)c(N[C@H]4C[C@@H]5CN(CC6CCOCC6)C[C@@H]5C4)nn3)ccc21 [Example 87, (3aR,5s,6aS)-N-(6-(1-methyl-1H-indol-5-yl)-4-(trifluoromethyl)pyridazin-3-yl)-2-((tetrahydro-2H-pyran-4-yl)methyl)octahydro-cyclopenta[c]pyrrol-5-amine] | –
15 | 2 | 338 | Cc1cc(-c2cc(C(F)(F)F)c(N[C@H]3C[C@@H]4CN(CC5CCOCC5)C[C@@H]4C3)nn2)c(F)cc1F [Example 92, (3aR,5s,6aS)-N-(6-(2,4-difluoro-5-methylphenyl)-4-(trifluoromethyl)pyridazin-3-yl)-2-((tetrahydro-2H-pyran-4-yl)methyl)octahydro-cyclopenta[c]pyrrol-5-amine] | –
16 | 3 | 12.5 | Cc1ccc(F)cc1-c1cc(C(F)(F)F)c(N[C@H]2C[C@@H]3CN(CC4CCCCO4)C[C@@H]3C2)nn1 (single isomer, unassigned) [Example 118] | –

Row | Structure (SMILES) | remaining activity at 30 µM [%] | IC50 [nM] | Human M4 Emin [%]
17 | Cn1cc2cc(-c3nnc(N[C@H]4C[C@@H]5CN(CC6CCOCC6)C[C@@H]5C4)cc3C(F)(F)F)ccc2n1 [Example 1, (3aR,5s,6aS)—N-(6-(2-Methyl-2H-indazol-5-yl)-5-(trifluoromethyl)pyridazin-3-yl)-2-((tetrahydro-2H-pyran-4-yl)methyl)octahydrocyclopenta[c]pyrrol-5-amine] | – | 5.63 | 2
